According to US20240390403A1, “COMPOSITION AND METHODS FOR TREATING AN ANEURYSM” (Nectero Medical, Inc., priority 2023, published 2024):

Test system: porcine abdominal aortas
Experiment: opening angle experiment on porcine abdominal aortic rings
Conditions: for statistical analysis of opening angles (ANOVA): Example 13, 50-fold dilution (0.05 mM; Glutaraldehyde 0.5% in PBS, pH 7.4), n=9 rings
Method: In this study, compounds of this disclosure were added to abdominal aortas in an opening angle experiment to determine how they would affect the aorta in vitro. Thus, to understand the ability of the compounds of this disclosure to bind to aortic elastin and determine their ability to affect the aorta and aneurysms.
Twelve porcine abdominal aortas were ordered and received. The infra-renal sections of these aortas were dissected, cleaned, rinsed, and then cut into rings measuring 3 mm in width. […] These rings were mixed up before testing to randomize them based on their location in the artery. They were then stored in 500 ml of saline. Analog solutions were prepared at the same molar concentration, but they were not normalized for gallic acid content as indicated in Table 1. These solutions of analogs were made using a solution containing about 26% iopamidol, a radioopaque contrast agent. […] All solutions were prepared one day prior to their use. […] For each solution, 6 aortic rings were placed in a pre-labeled 50 ml conical tube containing 20 ml of the solution, resulting in a volume to tissue ratio of approximately 3.3 ml of solution per ring. The tubes were then incubated at room temperature for 3 hours, with rotation every 30-40 minutes.
After the treatment, while still in the tube, the solution was decanted, and the rings were rinsed three times in PBS and then suspended in PBS. The rings were placed in a 6-well plate, with 2 rings per well and 3 ml of PBS in each well. Each ring was opened with a single cut using fine scissors and laid back in the well. The rings were allowed 15 minutes to recoil in the PBS at room temperature, with gentle shaking every 5 minutes.
Photographs of the rings were taken, and their opening angles were measured using Image J software. The data were then plotted and statistical analyses were performed for comparison.
All solutions were prepared one day prior to their use.
For this experiment, nine aortic rings were placed in 30 ml of a pre-prepared solution within a 50 ml conical tube. […] The tubes were then incubated at room temperature for 3 hours, with rotations occurring every 30-40 minutes. After the incubation period, while still in the tubes, the solution was poured off, and the rings were rinsed three times with PBS and then left suspended in PBS. The rings were then transferred to a 6-well plate, with 2 rings per well and 3-4 ml of PBS in each well. Each ring was opened with a single cut using fine scissors and laid flat in the well. They were allowed to recoil for 15 minutes in PBS at room temperature, with gentle shaking every 5 minutes. Photographs were taken, and the opening angle was measured using the Image J software.

| Compound | statistical analysis of opening angles (ANOVA) | statistical comparison of mean opening angles among analogs (FIG. 3) (Example 12, 2.49 mM, n=6 rings) | variability of opening angles relative to control samples (Example 12, 2.49 mM, n=6 rings) | also measured |
| --- | --- | --- | --- | --- |
| O=CCCCC=O [Glutaraldehyde, reference compound] | significantly different from all controls and analogs |  |  |  |
| O=C(OC[C@H]1O[C@@H](OC(=O)c2cc(O)c(O)c(O)c2)[C@H](OC(=O)c2cc(O)c(O)c(O)c2)[C@@H]1OC(=O)c1cc(O)c(O)c(O)c1)c1cc(O)c(O)c(O)c1 [TG-ribose, polygalloyl ribose] |  | statistically significant lower opening angles |  |  |
| O=C(OC[C@@H]1O[C@@H](OC(=O)c2cc(O)c(O)c(O)c2)[C@H](OC(=O)c2cc(O)c(O)c(O)c2)[C@@H](OC(=O)c2cc(O)c(O)c(O)c2)[C@H]1OC(=O)c1cc(O)c(O)c(O)c1)c1cc(O)c(O)c(O)c1 [α-PGG, pentagalloyl α-glucose] |  | not statistically different |  |  |
| O=C(OC[C@H]1O[C@@H](OC(=O)c2cc(O)c(O)c(O)c2)[C@H](OC(=O)c2cc(O)c(O)c(O)c2)[C@@H](OC(=O)c2cc(O)c(O)c(O)c2)[C@@H]1OC(=O)c1cc(O)c(O)c(O)c1)c1cc(O)c(O)c(O)c1 [β-PGG, pentagalloyl β-glucose, reference compound] | significantly different from all controls and analogs | not statistically different |  |  |
| polygalloyl maltose [OG-maltose] |  |  | substantially reduced | opening angle compared to the PBS subgroup (statistics) (Example 12, 2.49 mM, n=6 rings): statistically significant differences, except for OG-maltose |
| polygalloyl-sucrose [OG-sucrose] |  |  | substantially reduced |  |
